Laboratory results from patent publication US20150071856A1, “ANTAGONISTIC PEPTIDES FOR FRIZZLED-1 AND FRIZZLED-2” (Universiteit Maastricht, priority 2013, published 2015).
Entries after “also recorded” stand apart in the source; their conditions may differ. Residues, ends and D or L forms follow the SMILES beside them.

Assays:
C-FIT cells = assay: Differentiation assay (α-SMA, fibroblast to myofibroblast) in C-FIT cells; format: cell-based, rat
Excerpt: For this assay, we used the same C-FIT cells as for the migration assay to study a second component of wound healing, namely, differentiation of fibroblasts into myofibroblasts. When wound healing starts, cells called fibroblasts migrate into the scar. These cells have no contractile properties; however, they can differentiate into myofibroblasts, which can actively contract. To study which signals influence the transition from fibroblast into myofibroblasts, we treated the C-FIT cells and harvested them for mRNA isolation. Next, we tested them for the presence of specific markers for myofibroblasts by reverse transcription of the mRNA and subsequent quantitative PCR analysis, which are absent in fibroblasts. One of those markers is α-smooth muscle actin, which makes the cells contract.
(§1) RNA was isolated using the Trizol method (Invitrogen). For the RT-PCR, the RNA was transcribed to cDNA with Iscript™ cDNA synthesis kit (Bio-Rad, Hercules Calif., USA), Syber green (Eurogentec, Ghent, Belgium) was used for the detection of cDNA levels and cyclophilin served as the house keeping gene. In Supplementary methods panel 5, the primer sequences are shown.

infarct area = assay: Histological, qPCR and Western blot analysis of the infarct area in mice; format: in vivo
Excerpt: This was confirmed by histological analysis of the infarct area.
as §1
For Western blot, cells were homogenized in ice-cold Laemmli buffer and protein content was measured using the BCA protein assay (Pierce Biotechnology Inc., Rockford Ill., USA); proteins were denatured by boiling, separated on a 10% SDS-page gel, and transferred onto a Hybond C nitrocellulose membrane (Amersham Biosciences, Little Chalfont, United Kingdom). After blocking, membranes were incubated overnight at 4° C. with primary antibodies against β-catenin, α-SMA (both 1:2000, BD Biosciences, Franklin Lakes N.J., USA) or β-actin (1:2000 Sigma-Aldrich). Anti-mouse immunoglobulin G 1/5000 (Vector Labs Inc.) was used as the secondary antibody, and the membranes were developed using the Supersignal West Pico chemiluminescence kit (Pierce). Images of the blots were analyzed with image analysis software (Qwin Leica, Cambridge, United Kingdom).
One-half of the hearts of the mice was embedded in paraffin and cut in 4 μm sections. The paraffin sections were rehydrated and washed in PBS. One section was stained with AZAN, allowing an accurate determination of the infarct size. To visualize the myofibroblasts in the infarct area, the sections were incubated with an antibody directed against α-smooth muscle actin (Sigma-Aldrich), followed by incubation with the peroxidase-conjugated secondary antibody (Vector laboratories). Nuclei were visualized by hematoxylin. Photos were taken with a Leica (CTR500, 63×/0.85) camera and analyzed with the Quantimet program (QWin/QGo). An examiner blinded to the groups of the animals obtained all measurements. For the experiments with Rhodamine-labeled UM206, frozen sections (4 μm) of mouse kidney and small intestine were used.

myocardial infarction = assay: Hemodynamic measurements (Millar catheter, left ventricle) of mice after myocardial infarction; format: in vivo; conditions: UM206-treated groups post-MI
Description: Cardiac function was further assessed using a Millar pressure recording catheter inserted into the left ventricle. […] These observations further underscore the beneficial effect of UM206 treatment on cardiac function post-MI.
The animals were anaesthetized with urethane ([…], i.p., Sigma-Aldrich) followed by intubation and connected to a rodent ventilator (Hugo Sachs, March-Hugstetten, Germany). Body temperature was maintained at 37° C. The mice were then allowed to stabilize prior to hemodynamic measurements. A high-fidelity catheter tip micromanometer (Mikro-tip1.4F, SPR-671; Millar Instruments, Houston Tex., USA) was inserted through the right carotid artery into the left ventricular cavity. Ventricular pressure was measured. Maximal positive and negative pressure development (+dP/dt and −dP/dt) and heart rate were determined on a beat-to-beat basis. The heart was then stimulated by an i.v. ramp-infusion of dobutamine (Sigma-Aldrich) using a micro-injection pump (Model 200 Series, KdScientific, Boston, Mass., USA).

rFzd-1 or -2 = assay: TOPflash experiments in CHO and COS-7 cells overexpressing rFzd-1 or -2; format: cell-based, rat
Excerpt: Three areas of high homology that contained two cysteines are underlined (UM207), (UM208) and (UM206). In FIGS. 9B through 9D, the inhibitory effect of these three peptides on Wnt3a-induced luciferase activity in HEK293-superTOPflash is shown. […] Again, the peptides by themselves had no effect on the luciferase activity.
For the luciferase experiments not in HEK cells, the cells were additionally transfected with a TOPflash construct, eight TCF/LEF binding sites cloned into the pTA-Luc vector. Luciferase activity was measured using luciferase assay system (Promega, Madison Wis., USA).

hFzd-4 = target: T1, hFzd-4 (Homo sapiens, UniProt Q9ULV1); assay: Receptor specificity: luciferase in HEK293 superTOPflash cells overexpressing hFzd-4; format: cell-based; conditions: UM206 1.10^−8 M
T1 construct: expressed in transfected cells; host or cells: HEK293 superTOPflash (transient, Fugene6, pcDNA3.1/hygro)
T1 sequence (Q9ULV1 37-537): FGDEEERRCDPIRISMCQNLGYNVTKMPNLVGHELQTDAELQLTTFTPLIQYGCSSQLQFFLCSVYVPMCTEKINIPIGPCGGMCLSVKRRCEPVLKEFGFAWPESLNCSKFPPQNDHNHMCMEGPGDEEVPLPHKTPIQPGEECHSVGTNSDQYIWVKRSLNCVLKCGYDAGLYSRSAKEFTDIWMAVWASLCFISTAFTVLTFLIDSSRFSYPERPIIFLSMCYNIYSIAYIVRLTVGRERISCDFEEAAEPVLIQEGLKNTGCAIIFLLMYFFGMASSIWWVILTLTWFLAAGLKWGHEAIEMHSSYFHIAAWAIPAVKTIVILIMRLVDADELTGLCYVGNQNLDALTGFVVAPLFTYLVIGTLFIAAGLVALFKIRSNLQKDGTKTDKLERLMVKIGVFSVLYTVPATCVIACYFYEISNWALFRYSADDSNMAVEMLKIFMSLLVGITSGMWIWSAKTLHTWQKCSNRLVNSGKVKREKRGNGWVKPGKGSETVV
Description: In FIG. 3, Panel E, the efficacy of UM206 to block the Wnt3a-induced activation of luciferase activity in HEK293 superTOPflash cells transfected with different Fzds is shown.
The cell lines were cultured in 75 cm^2 culture flasks (Corning, Schiphol, the Netherlands) in Dulbeco's modified essential medium with L-glutamine (2 mM), 10% fetal calf serum (Invitrogen, Merelbeke, Belgium), and 1% gentamycin (Sigma-Aldrich, Zwijndrecht, The Netherlands). Before starting the experiment, the cell lines were treated with plasmocin 25 μg/ml (Invivogen, Toulose, France) and tested with a mycoalert mycoplasma detection kit (Lonza, Rockland Me., USA). Cells were transiently transfected with Fugene6 (Roche, Indianapolis Ind., USA) with plasmid DNA, pcDNA3.1/hygro (Invitrogen) with frizzled-1/2/4 or Wnts 3a-5a or with pcDNA3.0 (Invitrogen) containing the β-catenin or frizzled-5 sequence. After transfection, the cells were cultured for 24 hours in conditioned medium, collected from the cultured L-cells, L-cells with Wnt3a or 5a (Invitrogen). At the same moment the antagonist was added.

CSCC[C@H](NC(=O)CNC(=O)[C@H](CCC(=O)O)NC(=O)[C@H](CO)NC(=O)[C@@H](NC(=O)[C@H](CCCCN)NC(=O)[C@H](CC(N)=O)NC(=O)[C@H](CS)NC(C)=O)[C@@H](C)O)C(=O)N[C@@H](CC(=O)O)C(=O)NCC(=O)N[C@@H](CS)C(=O)N[C@@H](CCC(=O)O)C(=O)N[C@@H](CC(C)C)C(N)=O [UM206, Ac-Cys-Asn-Lys-Thr-Ser-Glu-Gly-Met-Asp-Gly-Cys-Glu-Leu-NH2] (Ac-CNKTSEGMDGCEL-NH2)
effect on Wnt3a/Wnt5a-induced differentiation, α-SMA levels (C-FIT cells): completely blocks this differentiation | infarct area size versus saline (infarct area; 2 and 5 weeks after MI): significantly smaller | thickness of the infarct area versus saline (infarct area; 2 and 5 weeks after MI): significantly thicker | myofibroblast numbers in the infarct area versus saline (infarct area; five weeks post-MI): significantly elevated number | blood vessels in the infarct area versus saline (infarct area; five weeks treatment): increased amount of blood vessels | collagen levels in the infarct area versus saline (infarct area; five weeks treatment): reduced collagen levels | α-SMA levels in infarcts versus saline (infarct area; five-week-old infarcts, qPCR and Western blotting): significantly higher α-SMA levels | myofibroblast numbers in the infarct area versus saline (infarct area; two weeks post-MI): more than four-fold higher; also recorded: four-fold more myofibroblasts | positive and negative dP/dt versus saline (myocardial infarction): higher positive dP/dt and a lower negative dP/dt value | inhibition of Wnt3a-induced TOPflash activation in CHO and COS-7 cells (rFzd-1 or -2): can selectively block canonical Wnt/Fzd-1/2 signaling | effect on Wnt3a-induced luciferase activity, frizzled-4 (hFzd-4): no effect
